The results in this text go back to PubChem BioAssay (NCI).

Among the test systems are BT-549 breast; DU-145 prostate; HCC-2998 colon; HOP-62 NSCLC; NCI-H23 lung; RPMI-8226 leukemia; SNB-75 CNS; SR leukemia.
Common to all, as to assay: NCI tumour cell line growth inhibition, 48 h

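The compound was tested at five concentrations on cells cultured in 96-well plates, with a 48-hour exposure period. GI50 = concentration required for 50% inhibition of growth. TGI: total growth inhibition.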 Where a SMILES comes first, the peptide text is derived from it. [ ]: non-standard residue; d: D form. The star is where a group is joined. dTle = CC(C)(C)[C@@H](N)C(=O)O; 4Abz = Nc1ccc(C(=O)O)cc1; NHOH = ON* Where only a bound is given, the exact number is not on record here.

With `Cc1ccc(C(=O)/C(=C\c2ccc([N+](=O)[O-])cc2)S(=O)Cc2ccc(Cl)cc2)cc1` (stereo unspecified), the GI50 is 1.73 µM in the assay with BT-549 breast; 1.75 µM in the assay with DU-145 prostate; 1.82 µM in the assay with HCC-2998 colon; 2.39 µM in the assay on HOP-62 NSCLC; 1.83 µM in the assay on NCI-H23 lung; 1.29 µM in the assay on RPMI-8226 leukemia. The GI50 in the assay with SNB-75 CNS was 1.53 µM; with SR leukemia, 1.13 µM. The TGI in the assay on BT-549 breast came to 3.22 µM; in the assay on DU-145 prostate it was 3.21 µM; in the assay on HCC-2998 colon it was 3.36 µM; in the assay with HOP-62 NSCLC it was 6.21 µM; with NCI-H23 lung, 3.89 µM; in the assay with RPMI-8226 leukemia it was 4.62 µM. Further, the values for the TGI in the assay with SNB-75 CNS and with SR leukemia were 3.25 µM and 10.1 µM, respectively.
As to `CN(CC(=O)Nc1nc2ccccc2[nH]1)S(=O)(=O)c1ccc(Cl)cc1`, the GI50 in the assay on BT-549 breast, in the assay on DU-145 prostate, in the assay on HCC-2998 colon, in the assay with HOP-62 NSCLC, in the assay on NCI-H23 lung and in the assay with RPMI-8226 leukemia was over 100 µM each time. For the same compound, the GI50 in the assay with SNB-75 CNS was 22.1 µM; in the assay on SR leukemia, over 100 µM. The TGI in the assay on BT-549 breast, with DU-145 prostate, with HCC-2998 colon, in the assay on HOP-62 NSCLC, with NCI-H23 lung and in the assay with RPMI-8226 leukemia was over 100 µM each time. Besides, the TGI was 78.8 µM in the assay on SNB-75 CNS and over 100 µM in the assay with SR leukemia.
On to `CCOC(=O)C1=C(C)N(Cc2ccc(Cl)cc2Cl)C2(O)C=CC(=O)C3=C(O)c4ccccc4C(=O)C312` (stereo unspecified), for which the GI50 is 21.6 µM in the assay with BT-549 breast; 7.99 µM in the assay on DU-145 prostate; 11.2 µM with HCC-2998 colon; 3.56 µM with HOP-62 NSCLC; 3.61 µM in the assay on NCI-H23 lung; 3.29 µM with RPMI-8226 leukemia. In addition, in the assay with SNB-75 CNS, the GI50 was 16.9 µM. For the same compound, the TGI in the assay with BT-549 breast is over 100 µM; in the assay on DU-145 prostate, 28.8 µM; in the assay with HCC-2998 colon it was 28.2 µM; in the assay on HOP-62 NSCLC it was 15 µM; with NCI-H23 lung, 16.1 µM; with RPMI-8226 leukemia, 13 µM. In addition, the TGI with SNB-75 CNS is over 100 µM.
`O=C(/C=C/C12c3ccccc3C(c3ccccc31)C1C(=O)NC(=O)C12)c1ccc(F)cc1` (stereo unspecified): the GI50 in the assay on BT-549 breast was 1.69 µM; in the assay on DU-145 prostate, 1.63 µM; in the assay on HCC-2998 colon it was 1.62 µM; in the assay on HOP-62 NSCLC, 2.63 µM; in the assay with NCI-H23 lung, 1.83 µM; with RPMI-8226 leukemia, 1.62 µM. For the same compound, the GI50 in the assay on SNB-75 CNS is 1.39 µM. For the same compound, the TGI in the assay with BT-549 breast is 3.42 µM; in the assay with DU-145 prostate, 3 µM; in the assay on HCC-2998 colon, 3.1 µM; with HOP-62 NSCLC, 7.4 µM; in the assay with NCI-H23 lung it was 3.91 µM; with RPMI-8226 leukemia it was 4.39 µM. Besides, the TGI with SNB-75 CNS was found to be 2.92 µM.
Regarding `C/C(=N\NC(=S)SCc1ccccc1)c1ccccn1`, the TGI with BT-549 breast stood at 6.07 µM; in the assay on DU-145 prostate, 16.9 µM; in the assay with HCC-2998 colon, 23.8 µM; in the assay with NCI-H23 lung, 9.31 µM; in the assay on RPMI-8226 leukemia, 1.97 µM; with SNB-75 CNS it was 13.7 µM. Also, the TGI in the assay on SR leukemia amounted to 1.77 µM.
Regarding `O=C1C2CCN(CC2)C1(CO)CO`, the TGI in the assay on BT-549 breast is 41.7 µM; with DU-145 prostate, 31.6 µM; in the assay on HOP-62 NSCLC it was over 100 µM; in the assay on NCI-H23 lung, 61.9 µM; in the assay on RPMI-8226 leukemia, 43.4 µM; with SNB-75 CNS it was over 81.8 µM. In the assay with SR leukemia, this compound gave a TGI of 55.3 µM.
As to `Oc1c(Cl)cc(Cl)cc1C(c1cc(Cl)cc(Cl)c1O)C(Cl)(Cl)Cl`, the GI50 with BT-549 breast is 2.27 µM; with DU-145 prostate, 4.12 µM; in the assay with HCC-2998 colon, 1.91 µM; with HOP-62 NSCLC, 3.77 µM; in the assay with NCI-H23 lung, 1.45 µM; with RPMI-8226 leukemia, 1.8 µM. Further, the GI50 in the assay with SNB-75 CNS is 3.75 µM. Besides, the TGI in the assay on BT-549 breast was determined as 6.93 µM; with DU-145 prostate, 15.7 µM; with HCC-2998 colon, 5.08 µM; in the assay with HOP-62 NSCLC it was 15 µM; in the assay with NCI-H23 lung it was 5.15 µM; with RPMI-8226 leukemia, 54.2 µM. In addition, the TGI in the assay on SNB-75 CNS came out at 17.4 µM.
For `O=C(O)c1c(=O)cccc2ssc12`, the GI50 with BT-549 breast was 1.68 µM; in the assay on DU-145 prostate it was 1.92 µM; with HCC-2998 colon, 1.8 µM; in the assay on HOP-62 NSCLC, 1.81 µM; in the assay on NCI-H23 lung, 1.75 µM; in the assay on RPMI-8226 leukemia, 2.19 µM. Moreover, the TGI was 3.12 µM in the assay with BT-549 breast; 3.73 µM with DU-145 prostate; 3.36 µM in the assay with HCC-2998 colon; 3.44 µM in the assay on HOP-62 NSCLC; 3.45 µM in the assay with NCI-H23 lung; 5.66 µM with RPMI-8226 leukemia.
Turning to `O=C1OC(=O)C2CCCC3CCCC1C32` (stereo unspecified), the TGI with BT-549 breast, in the assay with DU-145 prostate, with HCC-2998 colon, with HOP-62 NSCLC, in the assay on NCI-H23 lung and in the assay with RPMI-8226 leukemia was over 100 µM each time. This compound gave a TGI in the assay on SNB-75 CNS of over 100 µM.
As to `C[C@@H](NC(=O)[C@H](NC(=O)[C@@H]1CCCN1C(=O)CNC(=O)c1ccc(N)cc1)C(C)(C)C)C(=O)NO` (H-[4Abz]GP[dTle][dA]-{NHOH}), the GI50 in the assay with BT-549 breast, in the assay with DU-145 prostate, in the assay with HCC-2998 colon, with HOP-62 NSCLC, with NCI-H23 lung and with SNB-75 CNS was over 100 µM throughout. Also, the TGI with BT-549 breast, in the assay on DU-145 prostate, in the assay with HCC-2998 colon, in the assay with HOP-62 NSCLC, with NCI-H23 lung and in the assay on SNB-75 CNS was over 100 µM throughout.
For `CCCCCCCCCCCCCCCCCCOCC(CCP(=O)(CP(=O)(O)O)Oc1ccccc1)OCCCCCCCCCCCCCCCCCC` (stereo unspecified), the TGI in the assay with DU-145 prostate, in the assay on HCC-2998 colon, with HOP-62 NSCLC, with NCI-H23 lung, in the assay with RPMI-8226 leukemia and in the assay with SNB-75 CNS was over 100 µM in each case. For the same compound, the TGI in the assay on SR leukemia is over 100 µM.
